{"source": "patent US20260207614A1", "about": "“IRAK4 DEGRADERS AND USES THEREOF” (Kymera Therapeutics, Inc., priority 2022, published 2026)", "key": {"[1]": {"system": "patients with hidradenitis suppurativa (HS)", "conditions": "Phase 2 and 3, week 4; cited from earlier work"}, "[2]": {"system": "patients with atopic dermatitis (AD)", "conditions": "Phase 3, week 4; cited from earlier work"}, "[3]": {"test": "Diastereomer interconversion", "type": "physicochemical", "conditions": "in vitro and in vivo", "description": "(S,R,R)-Compound A and (R,R,R)-Compound A, which are designated as Compound B and Compound C, respectively. In some embodiments, Compound A is Compound B. In some embodiments, Compound A is Compound C. In some embodiments, Compound A is a mixture of Compound B and Compound C. […] In some embodiments, Compound A, Compound B, Compound C, or a pharmaceutically acceptable salt thereof, is amorphous. In some embodiments, Compound A, Compound B, Compound C, or a pharmaceutically acceptable salt thereof, is in crystal form."}}, "data": [{"molecule": "Adalimumab", "values": [{"measurement": "Responders: AN Count 0/1/2", "setting": "[1]", "result": "28-47%^2, 3"}, {"measurement": "Responders: HiSCR50", "setting": "[1]", "result": "29-51%^3, 4"}, {"measurement": "Responders: HiSCR75", "setting": "[1]", "result": 20, "unit": "%^4"}, {"measurement": "Responders: Pain NRS30", "setting": "[1]", "result": "39-58%^2, 3, 5"}, {"measurement": "ΔAN Count", "setting": "[1]", "result": "−31", "unit": "%^1"}]}, {"molecule": "Dupilumab", "values": [{"measurement": "Responders: Peak Pruritis NRS, Past Week/Past 24 Hours, first value", "setting": "[2]", "result": 23, "unit": "%"}, {"measurement": "Responders: Peak Pruritis NRS, Past Week/Past 24 Hours, second value", "setting": "[2]", "result": 40, "unit": "%"}, {"measurement": "ΔEASI", "setting": "[2]", "result": "−52", "unit": "%^1"}, {"measurement": "ΔPeak Pruritis NRS: Past Week/Past 24 Hours", "setting": "[2]", "result": "−34", "unit": "%^1"}]}, {"molecule": "Cn1c(=O)n([C@H]2CCC(=O)NC2=O)c2cccc(C#CCOC3CCN(C[C@H]4CC[C@H](n5cc(NC(=O)c6cnn7ccc(N8C[C@H]9C[C@@H]8CO9)nc67)c(C(F)F)n5)CC4)CC3)c21", "note": "[Compound B, 5-((1R,4R)-2-oxa-5-azabicyclo[2.2.1]heptan-5-yl)-N-(3-(difluoromethyl)-1-((1r,4R)-4-((4-((3-(1-((S)-2,6-dioxopiperidin-3-yl)-3-methyl-2-oxo-2,3-dihydro-1H-benzo[d]imidazol-4-yl)prop-2-yn-1-yl)oxy)piperidin-1-yl)methyl)cyclohexyl)-1H-pyrazol-4-yl)pyrazolo[1,5-a]pyrimidine-3-carboxamide]", "values": [{"measurement": "interconversion of diastereomers", "setting": "[3]", "result": "interconvert rapidly"}]}, {"molecule": "Cn1c(=O)n([C@@H]2CCC(=O)NC2=O)c2cccc(C#CCOC3CCN(C[C@H]4CC[C@H](n5cc(NC(=O)c6cnn7ccc(N8C[C@H]9C[C@@H]8CO9)nc67)c(C(F)F)n5)CC4)CC3)c21", "note": "[Compound C, 5-((1R,4R)-2-oxa-5-azabicyclo[2.2.1]heptan-5-yl)-N-(3-(difluoromethyl)-1-((1r,4R)-4-((4-((3-(1-((R)-2,6-dioxopiperidin-3-yl)-3-methyl-2-oxo-2,3-dihydro-1H-benzo[d]imidazol-4-yl)prop-2-yn-1-yl)oxy)piperidin-1-yl)methyl)cyclohexyl)-1H-pyrazol-4-yl)pyrazolo[1,5-a]pyrimidine-3-carboxamide]", "values": [{"measurement": "interconversion of diastereomers", "setting": "[3]", "result": "interconvert rapidly"}]}]}
